Source: article PMC12115184, “Metformin-Induced Apoptosis Is Mediated Through Mitochondrial VDAC1” (Pharmaceuticals, 2025)

Molecular target: T1, VDAC1 (Rattus norvegicus, UniProt Q9Z2L0)
T1 construct: VDAC1 purified from rat liver mitochondria (channel conductance)
Experiment: planar lipid bilayer conductance of reconstituted purified VDAC1; MST with N-terminal peptide
Type: biochemical

T1 sequence (Q9Z2L0 2-283): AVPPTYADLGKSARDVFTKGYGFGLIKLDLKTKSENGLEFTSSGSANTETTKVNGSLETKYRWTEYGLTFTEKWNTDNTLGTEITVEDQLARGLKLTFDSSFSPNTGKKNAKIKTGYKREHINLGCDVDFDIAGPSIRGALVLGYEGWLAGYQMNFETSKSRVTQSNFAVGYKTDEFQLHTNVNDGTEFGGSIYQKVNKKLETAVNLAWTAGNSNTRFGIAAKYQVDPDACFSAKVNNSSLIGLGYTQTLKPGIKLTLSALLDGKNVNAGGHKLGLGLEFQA

CN(C)C(=N)N=C(N)N [metformin, 3-(diaminomethylidene)-1,1-dimethylguanidine]
planar lipid bilayer conductance of reconstituted purified VDAC1; MST with N-ter: Metformin reduced VDAC1 conductance only after the channel was exposed to a high voltage step.
